Test results: patent US11542316B2, “S-Arrestin peptides and therapeutic uses thereof” (APITOPE INTERNATIONAL NV, priority 2017, dated 2023)
Ends that are not written are not given here.

System: LN cells and splenocytes upon SAg or peptide restimulation
Assay: Ex vivo tolerization experiment, DR3tg mice
Format: in vivo
Conditions: IFN-γ; for reduction in response to HIP-115 and HIP-115NE3 peptides: highest concentrations of probing peptide
Procedure: FIG. 7: Ex vivo tolerisation protocol. Mice are injected subcutaneously in the flank with 0.1 μg/ml, 1 μg/ml and 10 μg/ml peptide on days −15, −13 and −11, followed by 3 injections of 100 μg/ml on days −8, −6 and −4 (escalating dose regime). On day 0, mice are immunized subcutaneously at the base of the tail with SAg/CFA or peptide/CFA. Mice are sacrificed 10 days after immunization to measure proliferation of LN cells and splenocytes upon SAg or peptide restimulation. LN, lymph nodes.
FIG. 8: Ex vivo tolerance induction by HIP-115NE3-KKK apitope. DR3 mice are injected subcutaneously in the flank with 0.1 μg/ml, 1 μg/ml and 10 μg/ml HIP-115NE3-KKK on days −15, −13 and −11, followed by 3 injections of 100 μg/ml on days −8, −6 and −4 (escalating dose regime). On day 0, mice are immunized subcutaneously at the base of the tail with HIP-115/CFA. Mice are sacrificed 10 days after immunization to measure proliferation of LN cells and splenocytes upon SAg or peptide restimulation. Data represent mean±SEM of the concentration or OD values for the PBS-treated mice (black lines) and peptide-treated mice (color lines). Two-way ANOVA was used to measure overall treatment effects on T cell activation and p-values are written in the graphs. Bonferonni post-hoc testing was used and significant differences are indicated in the graphs (* p<0.05; **** p<0.0001). LN, lymph nodes. (A) Tolerisation against SAg in LN. IFN-γ production expressed as IFN-γ concentration (pg/ml). (B) Tolerisation against SAg in spleen. IFN-γ production expressed as IFN-γ concentration (pg/ml). (C) Tolerisation against HIP-115 and HIP-115NE3 peptides in LN. IFN-γ production expressed as OD values. (D) Tolerisation against HIP-115 and HIP-115NE3 peptides in spleen. IFN-γ production expressed as OD values.
FIG. 9: Ex vivo tolerance induction by HIP-11B apitope. DR3 mice are injected subcutaneously in the flank with 0.1 μg/ml, 1 μg/ml and 10 μg/ml HIP-11B on days −15, −13 and −11, followed by 3 injections of 100 μg/ml on days −8, −6 and −4 (escalating dose regime). On day 0, mice are immunized subcutaneously at the base of the tail with HIP-11B/CFA. Mice are sacrificed 10 days after immunization to measure proliferation of LN cells and splenocytes upon SAg or peptide restimulation. Data represent mean±SEM of the concentration values for the PBS-treated mice (black lines) and peptide-treated mice (color lines). IFN-γ production expressed as IFN-γ concentration (pg/ml). Two-way ANOVA was used to measure overall treatment effects on T cell activation and p-values are written in the graphs. Bonferonni post-hoc testing was used and significant differences are indicated in the graphs (* p<0.05; **** p<0.0001). LN, lymph nodes. (A) Tolerisation against SAg in LN. (B) Tolerisation against SAg in spleen. (C) Tolerisation against HIP-11B peptide in LN. (D) Tolerisation against HIP-11B peptide in spleen.
FIG. 10: Ex vivo tolerance induction by HIP-24DG apitope. DR3 mice are injected subcutaneously in the flank with 0.1 μg/ml, 1 μg/ml and 10 μg/ml HIP-24DG on days −15, −13 and −11, followed by 3 injections of 100 μg/ml on days −8, −6 and −4 (escalating dose regime). On day 0, mice are immunized subcutaneously at the base of the tail with HIP-24DG+HIP-24HM/CFA. Mice are sacrificed 10 days after immunization to measure proliferation of LN cells and splenocytes upon SAg or peptide restimulation. Data represent mean±SEM of the OD values for the PBS-treated mice (black lines) and peptide-treated mice (color lines). IFN-γ production expressed as OD values. LN, lymph nodes. Two-way ANOVA was used to measure overall treatment effects on T cell activation and p-values are written in the graphs. Bonferonni post-hoc testing was used and significant differences are indicated in the graphs (* p<0.05; ** p<0.01; *** p<0.001: **** p<0.0001). LN, lymph nodes. (A) Tolerisation against SAg in LN. (B) Tolerisation against HIP-24DG in LN. (C) Tolerisation against HIP-24HM2 peptide in LN. […]

KKKLTFRRDLYFSRVQVYKKK-NH2 [HIP-17J-KKK]
tolerization against SAg (spleen, DR3 mice, escalating dose regime s.c.): tolerization induced

LTKTLTLLPLLANNRERR-NH2 [HIP-24DG, LTKTLTLLPLLANNRERR]
tolerization against the peptide itself / peptides of the same region (LN, DR3 mice): some tolerization
tolerization against SAg (LN, DR3 mice, escalating dose regime s.c.): tolerization induced

KKKVIFKKISRDKSVTIYLGKKK-NH2 [HIP-115NE3-KKK]
reduction in response to SAg (LN and spleen, highest dose of SAg used for probing, escalating dose regime s.c.): 70%
reduction in response to HIP-115 and HIP-115NE3 peptides (LN): 55%
reduction in response to HIP-115 and HIP-115NE3 peptides (spleen): 65%
